From paper PMC11187126, “Structure and dynamics of the pyroglutamylated RF-amide peptide QRFP receptor GPR103” (Nature Communications, 2024)
Read-outs that look alike come from different tables or passages of the source. No end group written: not given here.

Molecular target: T1, GPR103 C327^7.48A (Homo sapiens, UniProt Q96P65, C327A)
T1 construct: we used human full-length QRFPR-encoding plasmids; expressed in transfected cells; host or cells: HEK293 cells (HEK293A in the flow cytometry section), pCAGGS vector
T1 sequence (Q96P65 1-431 C327A): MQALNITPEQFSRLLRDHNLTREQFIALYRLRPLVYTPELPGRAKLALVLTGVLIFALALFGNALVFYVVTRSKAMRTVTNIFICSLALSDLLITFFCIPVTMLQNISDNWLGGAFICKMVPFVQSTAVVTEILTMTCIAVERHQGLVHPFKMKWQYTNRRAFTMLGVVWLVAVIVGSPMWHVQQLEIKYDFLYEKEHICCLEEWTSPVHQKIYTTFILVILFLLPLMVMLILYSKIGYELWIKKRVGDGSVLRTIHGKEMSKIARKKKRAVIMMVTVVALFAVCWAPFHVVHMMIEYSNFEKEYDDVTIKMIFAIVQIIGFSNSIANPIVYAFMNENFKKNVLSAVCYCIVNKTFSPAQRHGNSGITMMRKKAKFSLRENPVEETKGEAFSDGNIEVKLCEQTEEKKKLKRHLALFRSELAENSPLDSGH
Assay: TGFα shedding assay; Exp. level WT (1:5)
Type: cell-based
Description: For the TGFα shedding assay and the flow cytometry analysis, we used human full-length QRFPR-encoding plasmids. Specifically, GPR103 was N-terminally modified with an HA signal sequence followed by a FLAG epitope and then a flexible linker ([…]; the FLAG epitope is underlined) and inserted into the pCAGGS vector. Plasmid encoding GPR103 mutants were generated using Quickchange Site-Directed Mutagensis kit (Agilent).
The TGFα shedding assay was performed as described previously with minor modifications. Plasmid transfection was performed in a 6-well plate with a mixture of 500 ng (per well in a 6-well plate) AP-TGFα-encoding plasmid and 200 ng GPR103-encoding plasmid. After 1-day culture, the transfected cells were harvested by trypsinization, pelleted by centrifugation at 190 × g for 5 min, and washed once with 5 mM HEPES (pH 7.4)-containing Hank’s Balanced Salt Solution (HBSS). After centrifugation, the cells were resuspended in 8 mL of the HEPES-containing HBSS. The cell suspension was seeded in a 96-well culture plate (cell plate) at a volume of 90 μL (per well hereafter) and incubated in a 37 °C incubator with 5% CO2 for 30 min. […] After spinning the cell plates at 190 × g for 2 min, 80 μL of conditioned media was transferred to an empty 96-well plate (conditioned media (CM) plate). Then, 80 μL of AP reaction solution (10 mM p-nitrophenylphosphate (p-NPP), 120 mM Tris-HCl (pH 9.5), 40 mM NaCl, and 10 mM MgCl2) was dispensed into the cell plates and the CM plates. Absorbance at 405 nm of the plates was measured using a microplate reader (SpectraMax 340 PC384, Molecular Devices) before and after 1-h incubation at room temperature. Ligand-induced AP-TGFα release was calculated by subtracting spontaneous AP-TGFα release signal from ligand-induced AP-TGFα release signal. The AP-TGFα release signals were fitted to a four-parameter sigmoidal concentration–response curve, using the Prism 10 software (GraphPad Prism). For each replicate experiment, the pEC50 parameter (negative logarithmic values of EC50 values) of the individual GPR103 mutants were normalized to that of the wild-type GPR103 performed in parallel, and resulting ∆pEC50 values were used to denote ligand response activity of the mutants. […]
Exp. le vel: WT (1:5 0)Exp. le vel: WT (1:5 0)Exp. le vel: WT (1:5 0)Exp. le vel: WT (1:2 0)Exp. le vel: WT (1:2 0)Exp. le vel: WT (1:1 0) […]
L1 4N - t e r mA F2 5N - t e r mA I 2 6N - t e r mA Y 2 9N - t e r mA C 9 82 .5 7A T10 22 .6 1A Exp . l eve l: WT (1 :5)Exp . l evel : >WT (1 :1)Exp. le vel: WT (1:2 0)Exp. le vel: WT (1:2 0)Exp. le vel: WT (1:5 0)Exp . l eve l: WT (1 :1) […]
Exp. le vel: WT (1:1 0)Exp. le vel: WT (1:2 0) C 1 1 83 .2 5AExp. le vel: WT (1:5 0)Exp. le vel: WT (1:5 0)Exp. le vel: WT (1:2 0)Exp . l eve l: WT (1 :5) […]
Exp. le vel: WT (1:5 0)Exp. le vel: WT (1:1 0)Exp. le vel: WT (1:5 0) E203ECL2AExp . l evel : >WT (1 :1)Exp. le vel: WT (1:5 0)Exp. le vel: WT (1:5 0) […]
Exp . l eve l: WT (1 :1) F28Exp. le vel: WT (1:5 0) C 2 8 56 .4 7AExp. le vel: WT (1:2 0) WExp. le vel: WT (1:2 0) F28Exp. le vel: WT (1:5 0)Exp . l evel : >WT (1 :1) […]
Exp. le vel: WT (1:5 0)Exp. le vel: WT (1:5 0) C 3 2 77 .4 8AExp . l eve l: WT (1 :5)Exp . l evel : >WT (1 :1)Exp . l evel : >WT (1 :1) […]
Suppl eme nt ary Figure 1 | Mutational analysis of GPR103. […]
mutants. Data are presented as mean values ± SEM, normally n=3-5; dots), each performed in triplicate. b-d Cell-surface expression (b) and QRFP26-in-duced activation of GPR103 (c, d) were analyzed by the flow cytometry and the TGFα shedding assay, respectively. From the concentration–response curves (a), Emax (c) and ΔpEC50 (d) values relative to the wild type were calculated. Colors in the mutant bars indicate an expression level matching to that of titrated wild type. Statistical analyses were performed using the ordinary one-way ANOVA followed by Dunnett tests with the expression-matched […]

In the case of TSGPLGNLAEELNGYSRKKGGFSFRF-NH2 [QRFP26], the Emax (Exp. #1) is reported as 95.99 % WT, the Emax (Exp. #2) is reported as 96.35 % WT and the Emax (Exp. #3) is reported as 104.77 % WT. For the same substance, the Emax (mean, read-out: Emax) was 99%, the EC50 (n = 3) was 4.27 nM and the Emax (n = 3, read-out: Emax) was 104 ± 2.3%.
